Values quoted from earlier work in patent US8349557B2 (priority 2008, dated 2013).
Where two headings read alike, the source gives them in different places.

What was measured:
[1] = test system: rat hepatoma cell line, H-4-II-E cells
cerebellar granule cells = conditions: 24 hours
skeletal muscle = conditions: in some patients

| autophagic vacuolation in skeletal muscle (skeletal muscle) | SMILES | effect on macroautophagy / autophagosome formation [1] | effect on macroautophagy / autophagosome formation ([1]; non-starved cells, 100 nM bafilomycin, one hour) | V-ATPase activity (V-ATPase; 0.3 nM bafilomycin) | V-ATPase activity (V-ATPase; 10 nM bafilomycin) | V-ATPase activity (V-ATPase; 100 nM bafilomycin (high-dose)) | vacuoles in the cytoplasm (cerebellar granule cells; 0.3 nM bafilomycin) | vacuoles in the cytoplasm (cerebellar granule cells; 10 nM bafilomycin) | degradation of long-lived proteins (lysosomes) | lysosomal pH (lysosomes) |
| --- | --- | --- | --- | --- | --- | --- | --- | --- | --- | --- |
|  | CO/C1=C\C(C)=C\[C@@H](C)[C@@H](O)[C@@H](C)C/C(C)=C/C=C/[C@H](OC)[C@@H]([C@@H](C)[C@@H](O)[C@H](C)[C@@]2(O)C[C@@H](O)[C@H](C)[C@@H](C(C)C)O2)OC1=O [bafilomycin] | explosive autophagosome formations occupying vast portions of the cytoplasm | no significant effect | 40-50 % of normal | below 10% | completely eliminates V-ATPase activity | not present | accumulation of large, swollen, single-membraned vacuoles in the cytoplasm with electron-dense deposits |  |  |
| florid autophagic vacuolation | CCN(CC)CCCC(C)Nc1ccnc2cc(Cl)ccc12 (stereo not shown) [chloroquine] |  |  |  |  |  |  |  | impairs the degradation of long-lived proteins | raises their pH |
